From patent publication US7951843B2, “Amide linked modulators of γ-secretase” (Janssen Pharmaceutica N.V., priority 2007, dated 2011)

Molecular target: γ-secretase (Homo sapiens, UniProt P49768)
Experiment: Screening for γ-secretase-modulating activity in SKNBE2 cells carrying APP 695 wild type
Type: cell-based
Details: SKNBE2 cells carrying the APP 695 wild type
Description: Screening of the Compounds of the Invention for γ-Secretase-modulating Activity Screening was carried out using SKNBE2 cells carrying the APP 695—wild type, grown in DMEM/NUT-mix F12 (HAM) provided by Gibco (cat no. 31330-38) containing 5% Serum/Fe supplemented with 1% non-essential amino acids. Cells were grown to near confluency. The screening was performed using the assay as described in Citron et al (1997) Nature Medicine 3: 67.

Row | inhibition at 1 µM [%] | Compound
1 | 24 | CC(C)CC(C(=O)O)c1cc(NC(=O)c2cc(C(F)(F)F)cc(C(F)(F)F)c2)cc(-c2ccc(C(F)(F)F)cc2)c1 (centres unmarked) [Compound 3, 2-[5-(3,5-Bis-trifluoromethyl-benzoylamino)-4′-trifluoromethyl-biphenyl-3-yl]-4-methyl-pentanoic acid]
2 | 34 | CC(C)CC(C(=O)O)c1cc(NC(=O)c2cc(F)cc(F)c2)cc(-c2ccc(C(F)(F)F)cc2)c1 (centres unmarked) [Compound 4, 2-[5-(3,5-Difluoro-benzoylamino)-4′-trifluoromethyl-biphenyl-3-yl]-4-methyl-pentanoic acid]
